Earlier results, collected in patent US20080051430A1, “Acylated Piperidine Derivatives as Melanocortin 4-Receptor Agonists” (priority 2004, published 2008).

Experiments:
[1] = system: males with psychogenic erectile dysfunction
[2] = in vivo, po
[3] = system: men with a variety of organic risk factors; conditions: subcutaneous injection; compared with placebo

## Ac-Nle-c[Asp-His-DPhe-Arg-Trp-Lys]-NH2 [MT-II]
[1]; in vivo
  duration of action: approximately 2.5 hours
  time to onset of erection: 10 to 20 min
[1]; injected intramuscularly or subcutaneously
  response rate: 75%
[2]
  absorption into the systemic circulation: not absorbed into the systemic circulation
[3]
  level of sexual desire: significantly higher
